From patent US12371454B2, “Cyclic peptide compound having Kras inhibitory action” (priority 2019, dated 2025)
Starred links: 1 amine or outer side, 2 acyl side, 3 side chain; linkers in the order of their positions; H or OH if unused. Positions of bridges follow the written chain, without caps; N, C: chain ends. Non-standard residues stand in square brackets, D forms with d. Residues, ends and D or L forms follow the SMILES beside them. *: point of attachment. hPhe(3,5-F2-4-CF3) = N[C@@H](CCc1cc(F)c(C(F)(F)F)c(F)c1)C(=O)O; hPhe(3-Cl-4-CF3) = N[C@@H](CCc1ccc(C(F)(F)F)c(Cl)c1)C(=O)O; NMeAbu(4,4,4-F3) = CN[C@@H](CC(F)(F)F)C(=O)O; NMePhe(4-Me) = CN[C@@H](Cc1ccc(C)cc1)C(=O)O; NMePhe(2-Cl) = CN[C@@H](Cc1ccccc1Cl)C(=O)O; NMedβ3hAla = C[C@H](CC(=O)[*:2])N(C)[*:1]; NMeGly(cPent) = CN[C@H](C(=O)O)C1CCCC1; NMeCha = CN[C@@H](CC1CCCCC1)C(=O)O; NMeChg = CN[C@H](C(=O)O)C1CCCCC1; NMeF = CN[C@@H](Cc1ccccc1)C(=O)O; NMeD = CN[C@@H](CC(=O)O)C(=O)O; NMeL = CN[C@@H](CC(C)C)C(=O)O; NMeNva = CCC[C@H](NC)C(=O)O; NMeV = CN[C@H](C(=O)O)C(C)C; Iva = CC[C@](C)(N)C(=O)O; Morpholide = C1CN(*)CCO1; NMeA = CN[C@@H](C)C(=O)O; Piperidide = C1CCN(*)CC1; Pyrrolidide = C1CCN(*)C1; Ac5c = NC1(C(=O)O)CCCC1; Aze = O=C(O)[C@@H]1CCN1; X14 = CC1(C)CCN(*)C1; Sar = CNCC(=O)O

Legend:
[1] = molecular target: T1, Kras and SOS1 (biotin-tagged human Kras loaded with GDP, His-tagged human SOS1) (Homo sapiens, UniProt P01116, G12D); assay: Protein-protein interaction inhibition between Kras and SOS1 (KrasGl2D-SOS PPI) using AlphaScreen; type: binding; details: AlphaScreen; biotin-tagged human Kras loaded with GDP, His-tagged human SOS1; read-out: KRAS G12D-SOS PPI IC50
T1 construct: made in house; host or cells: E. coli (stated for Kras only)
T1 sequence (P01116 1-188 isoform P01116-2 G12D): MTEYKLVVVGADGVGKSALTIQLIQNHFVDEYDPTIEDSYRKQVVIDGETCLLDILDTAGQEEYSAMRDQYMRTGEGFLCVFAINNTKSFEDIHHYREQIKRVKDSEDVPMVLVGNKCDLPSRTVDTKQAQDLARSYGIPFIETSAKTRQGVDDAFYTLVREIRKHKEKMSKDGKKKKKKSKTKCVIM
Method in brief: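 Binding between SOS1 and Kras is detected as bead-proximity luminescence: illuminate Ni-conjugated donors (680 nm), collect 520-620 nm emission from streptavidin-conjugated acceptors; Kras carries biotin and GDP loaded after purification, SOS1 carries a His tag.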

[2] = test system: Human pancreatic cancer cell line AsPC-1; assay: Measurement of AsPC-1 cell growth inhibition (AsPC-1 CGI); type: cell-based; details: 96 h
Method in brief: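 AsPC-1 cells in 15% FBS RPMI-1640 were exposed to test compound for 96 hours at 37° C, with CellTiter-Glo as endpoint.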

Compound	IC50 [1] [µM]	IC50 [2] [µM]
CC[C@H](C)[C@@H]1NC(=O)[C@H](CC(C)C)N(C)C(=O)C[C@@H](C(=O)N2CCC(C)(C)C2)N(C)C(=O)[C@H](C2CCCCC2)N(C)C(=O)C2(CCCC2)NC(=O)[C@@H]2CCCN2C(=O)[C@H](CCc2ccc(C(F)(F)F)c(Cl)c2)NC(=O)CN(C)C(=O)[C@H](CC2CCCCC2)N(C)C(=O)CN(C)C(=O)CN(C)C1=O [Compound 1150] ([NMeL]I[Sar][Sar][NMeCha][Sar][hPhe(3-Cl-4-CF3)]P[Ac5c][NMeChg][NMeD]-X14; lactam N-11)	0.00052	0.05 to 0.1
CC[C@H](C)[C@@H]1NC(=O)[C@H](CC(C)C)N(C)C(=O)C[C@@H](C(=O)N2CCCCC2)N(C)C(=O)[C@H](C(C)C)N(C)C(=O)C2(CCCC2)NC(=O)[C@@H]2CCCN2C(=O)[C@H](CCc2ccc(C(F)(F)F)c(Cl)c2)NC(=O)CN(C)C(=O)[C@H](Cc2ccccc2)N(C)C(=O)CN(C)C(=O)CN(C)C1=O [Compound 1598] ([NMeL]I[Sar][Sar][NMeF][Sar][hPhe(3-Cl-4-CF3)]P[Ac5c][NMeV][NMeD]-Piperidide; lactam N-11)	0.0092	0.1 to 0.5
CC[C@H](C)[C@@H]1NC(=O)[C@H](CC(C)C)N(C)C(=O)C[C@@H](C(=O)N(C)C)N(C)C(=O)[C@H](C(C)C)N(C)C(=O)C2(CCCC2)NC(=O)[C@@H]2CCCN2C(=O)[C@H](CCc2ccc(C(F)(F)F)c(Cl)c2)NC(=O)CN(C)C(=O)[C@H](CC2CCCCC2)N(C)C(=O)CN(C)C(=O)CN(C)C1=O [Compound 1812] ([NMeL]I[Sar][Sar][NMeCha][Sar][hPhe(3-Cl-4-CF3)]P[Ac5c][NMeV][NMeD]-NMe2; lactam N-11)	0.00056	0.05 to 0.1
CCC[C@H]1C(=O)N[C@@H]([C@@H](C)CC)C(=O)N(C)CC(=O)N(C)CC(=O)N(C)[C@@H](Cc2ccc(C)cc2)C(=O)N(C)CC(=O)N[C@@H](CCc2cc(F)c(C(F)(F)F)c(F)c2)C(=O)N2CCC[C@H]2C(=O)NC2(CCCC2)C(=O)N(C)[C@@H](C2CCCCC2)C(=O)N(C)[C@H](C(=O)N2CCCC2)CC(=O)N1C [Compound 1197] ([NMeNva]I[Sar][Sar][NMePhe(4-Me)][Sar][hPhe(3,5-F2-4-CF3)]P[Ac5c][NMeChg][NMeD]-Pyrrolidide; lactam N-11)	0.0006	0.02 to 0.05
CC[C@H](C)[C@@H]1NC(=O)[C@H](CC(F)(F)F)N(C)C(=O)C[C@@H](C(=O)N2CCOCC2)N(C)C(=O)[C@H](C2CCCCC2)N(C)C(=O)C2(CCCC2)NC(=O)[C@@H]2CCCN2C(=O)[C@H](CCc2ccc(C(F)(F)F)c(Cl)c2)NC(=O)CN(C)C(=O)[C@H](CC2CCCCC2)N(C)C(=O)CN(C)C(=O)CN(C)C1=O [Compound 774] ([NMeAbu(4,4,4-F3)]I[Sar][Sar][NMeCha][Sar][hPhe(3-Cl-4-CF3)]P[Ac5c][NMeChg][NMeD]-Morpholide; lactam N-11)	0.00055	0.02 to 0.05
CC[C@H](C)[C@@H]1NC(=O)[C@H](CC(C)C)N(C)C(=O)C[C@@H](C)N(C)C(=O)[C@H](C(C)C)N(C)C(=O)C2(CCCC2)NC(=O)[C@@H]2CCCN2C(=O)[C@H](CCc2ccc(C(F)(F)F)c(Cl)c2)NC(=O)CN(C)C(=O)[C@H](Cc2ccccc2Cl)N(C)C(=O)CN(C)C(=O)CN(C)C1=O [Compound 1615] (cyclo([Ac5c][NMeV][NMedβ3hAla][NMeL]I[Sar][Sar][NMePhe(2-Cl)][Sar][hPhe(3-Cl-4-CF3)]P))	0.04	0.1 to 0.5
CC[C@H](C)[C@@H]1NC(=O)[C@H](CC(C)C)N(C)C(=O)C[C@@H](C(=O)N(C)C)N(C)C(=O)[C@H](C2CCCC2)N(C)C(=O)C2(CCCC2)NC(=O)[C@H](C)N(C)C(=O)[C@H](CCc2ccc(C(F)(F)F)c(Cl)c2)NC(=O)CN(C)C(=O)[C@H](CC2CCCCC2)N(C)C(=O)[C@@H]2CCN2C(=O)[C@H](C)N(C)C1=O [Compound 274] ([NMeL]I[NMeA][Aze][NMeCha][Sar][hPhe(3-Cl-4-CF3)][NMeA][Ac5c][NMeGly(cPent)][NMeD]-NMe2; lactam N-11)	0.00082	0.05 to 0.1
CC[C@H](C)[C@@H]1NC(=O)[C@H](CC(C)C)N(C)C(=O)C[C@@H](C)N(C)C(=O)[C@H](C(C)C)N(C)C(=O)[C@](C)(CC)NC(=O)[C@@H]2CCCN2C(=O)[C@H](CCc2ccc(C(F)(F)F)c(Cl)c2)NC(=O)CN(C)C(=O)[C@H](CC2CCCCC2)N(C)C(=O)CN(C)C(=O)CN(C)C1=O [Compound 944] (cyclo(I[Sar][Sar][NMeCha][Sar][hPhe(3-Cl-4-CF3)]P[Iva][NMeV][NMedβ3hAla][NMeL]))	0.018	0.1 to 0.5
